Assay results published in ChEMBL document CHEMBL4725351, “Cyclic Derivative of Host-Defense Peptide IDR-1018 Improves Proteolytic Stability, Suppresses Inflammation, and Enhances In Vivo Activity” (J Med Chem, 2020).
Converted amounts (≈) assume the structure as drawn. The source made the active and inactive calls. The calls are words filed in the database; no cut-off is given here. Where a SMILES comes first, the peptide text is derived from it. Bridges are numbered along the chain shown (N, C = ends).

Legend:
[1] = test system: Staphylococcus aureus; test: Antibacterial activity against methicillin-resistant Staphylococcus aureus SAP0017 measured after overnight incubation by microtitre plate based spectrophotometric method; format: functional
[2] = test system: Staphylococcus aureus; test: Antibacterial activity against methicillin-resistant Staphylococcus aureus USA300 LAC measured after overnight incubation by microtitre plate based spectrophotometric method; format: functional
[3] = test system: Pseudomonas aeruginosa; test: Antibacterial activity against Pseudomonas aeruginosa PA14 measured after overnight incubation by microtitre plate based spectrophotometric method; format: functional
[4] = test system: Pseudomonas aeruginosa; test: Antibacterial activity against Pseudomonas aeruginosa PAO1 measured after overnight incubation by microtitre plate based spectrophotometric method; format: functional
[5] = test system: Escherichia coli; test: Antibacterial activity against Escherichia coli ATTC 489 measured after overnight incubation by microtitre plate based spectrophotometric method; format: functional
[6] = test system: Acinetobacter baumannii; test: Antibacterial activity against Acinetobacter baumannii 5015 measured after overnight incubation by microtitre plate based spectrophotometric method; format: functional
[7] = test system: Acinetobacter baumannii; test: Antibacterial activity against Acinetobacter baumannii 17918 measured after overnight incubation by microtitre plate based spectrophotometric method; format: functional
[8] = test system: Klebsiella pneumoniae; test: Antibacterial activity against Klebsiella pneumoniae ATTC 13883 measured after overnight incubation by microtitre plate based spectrophotometric method; format: functional
[9] = test system: Staphylococcus aureus; test: Antibiofilm activity against methicillin-resistant Staphylococcus aureus SAP0017 incubated for 24 hrs under shaking condition by turbidometric method; format: functional
[10] = test system: Staphylococcus aureus; test: Antibiofilm activity against methicillin-resistant Staphylococcus aureus USA300 LAC incubated for 24 hrs under shaking condition by turbidometric method; format: functional
[11] = test system: Pseudomonas aeruginosa; test: Antibiofilm activity against Pseudomonas aeruginosa PA14 incubated for 24 hrs under shaking condition by turbidometric method; format: functional
[12] = test system: Pseudomonas aeruginosa; test: Antibiofilm activity against Pseudomonas aeruginosa PAO1 incubated for 24 hrs under shaking condition by turbidometric method; format: functional
[13] = test system: Escherichia coli; test: Antibiofilm activity against Escherichia coli ATTC 489 incubated for 24 hrs under shaking condition by turbidometric method; format: functional
[14] = test system: Acinetobacter baumannii; test: Antibiofilm activity against Acinetobacter baumannii 5015 incubated for 24 hrs under shaking condition by turbidometric method; format: functional
[15] = test system: Acinetobacter baumannii; test: Antibiofilm activity against Acinetobacter baumannii 17918 incubated for 24 hrs under shaking condition by turbidometric method; format: functional
[16] = test system: Klebsiella pneumoniae; test: Antibiofilm activity against Klebsiella pneumoniae ATTC 13883 incubated for 24 hrs under shaking condition by turbidometric method; format: functional
[17] = target: T1, Trypsin (Homo sapiens, UniProt P07477+P07478+P35030); test: Stability of the compound in pH 8.2 ammonium bicarbonate buffer assessed as trypsin (unknown origin)-mediated drug degradation at 20 ug/ml measured up to 120 mins by MALDI-TOF analysis; format: ADME, protein assay; settings: pH 8.2, 2 h, at 20 µg/mL
[18] = target: T1, Trypsin; test: Stability of the compound in pH 8.2 ammonium bicarbonate buffer assessed as trypsin (unknown origin)-mediated drug degradation at 20 ug/ml measured up to 120 mins by RP-HPLC analysis; format: ADME, protein assay; settings: pH 8.2, 2 h, at 20 µg/mL
[19] = Aggregation property of the compound in water at 1 mg/ml by turbidimetric method; format: physicochemical; settings: buffer
[20] = Aggregation property of the compound in saline at 1 mg/ml by turbidimetric method; format: physicochemical; settings: buffer
[21] = Aggregation property of the compound in 5% dextrose at 1 mg/ml by turbidimetric method; format: physicochemical
[22] = Aggregation property of the compound in RPMI medium with 1% FBS at 1 mg/ml by turbidimetric method; format: physicochemical
[23] = Aggregation property of the compound in sodium citrate solution at 10 mM by turbidimetric method; format: physicochemical; settings: 10000 µM
[24] = Aggregation property of the compound in sodium phosphate solution at 10 mM by turbidimetric method; format: physicochemical; settings: 10000 µM
[25] = Aggregation property of the compound in sodium nitrate solution at 10 mM by turbidimetric method; format: physicochemical; settings: 10000 µM
[26] = Aggregation of the compound in human PBMC assessed as amorphous morphology at 50 ug/ml measured after 4 hrs by microscopic analysis; format: ADME, tissue-based; settings: dose 50 µg/ml
[27] = Cytotoxicity against human PBMC assessed as reduction in cell viability at 100 ug/ml measured after 24 hrs by LDH assay; format: tissue-based; settings: dose 100 µg/ml
[28] = test system: PBMC; test: Immunomodulatory activity in human PBMC assessed as increase in MCP1 production at 25 ug/ml measured after overnight incubation by ELISA; format: functional, tissue-based; settings: dose 25.0 µg/ml
[29] = test system: PBMC; test: Immunomodulatory activity in human PBMC assessed as change in TNFalpha production at 25 ug/ml measured after overnight incubation by ELISA; format: functional, tissue-based; settings: dose 25.0 µg/ml
[30] = test system: PBMC; test: Immunomodulatory activity in human PBMC assessed as increase in IL-1RA production at 25 ug/ml measured after overnight incubation by ELISA; format: functional, tissue-based; settings: dose 25.0 µg/ml
[31] = test system: Pseudomonas aeruginosa; test: Antibiofilm activity against 24 hrs preformed Pseudomonas aeruginosa PA14 biofilm assessed as reduction in biofilm viability at 100 ug/ml by TTC assay; format: functional, organism-based; settings: dose 100.0 µg/ml
[32] = test system: Pseudomonas aeruginosa; test: Antibiofilm activity against 24 hrs preformed Pseudomonas aeruginosa PAO1 biofilm assessed as reduction in biofilm viability at 100 ug/ml by TTC assay; format: functional, organism-based; settings: dose 100.0 µg/ml
[33] = test system: Escherichia coli; test: Antibiofilm activity against 24 hrs preformed Escherichia coli ATTC 489 biofilm assessed as reduction in biofilm viability at 100 ug/ml by TTC assay; format: functional, organism-based; settings: dose 100.0 µg/ml
[34] = test system: Acinetobacter baumannii; test: Antibiofilm activity against 24 hrs preformed Acinetobacter baumannii 5015 biofilm assessed as reduction in biofilm viability at 100 ug/ml by TTC assay; format: functional, organism-based; settings: dose 100.0 µg/ml
[35] = test system: Acinetobacter baumannii; test: Antibiofilm activity against 24 hrs preformed Acinetobacter baumannii 17918 biofilm assessed as reduction in biofilm viability at 100 ug/ml by TTC assay; format: functional, organism-based; settings: dose 100.0 µg/ml
[36] = test system: Klebsiella pneumoniae; test: Antibiofilm activity against 24 hrs preformed Klebsiella pneumoniae ATTC 13883 biofilm assessed as reduction in biofilm viability at 100 ug/ml by TTC assay; format: functional, organism-based; settings: dose 100.0 µg/ml
[37] = test system: PBMC; test: Immunomodulatory activity in human PBMC assessed as reduction in LPS-induced TNFalpha production at 25 ug/ml measured after overnight incubation by ELISA; format: functional, tissue-based; settings: dose 25.0 µg/ml
[38] = Immunomodulatory activity in human PBMC assessed as increase in LPS-induced MCP1 production at 25 ug/ml measured after overnight incubation by ELISA; format: functional; settings: dose 25 µg/ml
[39] = test system: PBMC; test: Immunomodulatory activity in human PBMC assessed as reduction in LPS-induced IL1beta production at 25 ug/ml measured after overnight incubation by ELISA; format: functional, tissue-based; settings: dose 25.0 µg/ml
[40] = test system: PBMC; test: Immunomodulatory activity in human PBMC assessed as increase in LPS-induced IL10 production at 25 ug/ml measured after overnight incubation by ELISA; format: functional; settings: dose 25.0 µg/ml
[41] = test system: PBMC; test: Immunomodulatory activity in human PBMC assessed as increase in LPS-induced IL1RA production at 25 ug/ml measured after overnight incubation by ELISA; format: functional; settings: dose 25.0 µg/ml
[42] = Toxicity in CD1 mouse assessed as precipitation under the skin at 10 mg/kg, sc measured after 16 hrs; format: organism-based; settings: in vivo
[43] = test system: Staphylococcus aureus; test: Antibacterial activity against Staphylococcus aureus USA300 LAC infected in CD1 mouse assessed as reduction in dermonecrosis at 7.5 mg/kg, sc administered at infection site measured after 3 days by caliper method relative to control; format: functional; settings: time 3.0 day
[44] = test system: Staphylococcus aureus; test: Antibacterial activity against Staphylococcus aureus USA300 LAC infected in CD1 mouse assessed as reduction in bacterial load at 7.5 mg/kg, sc administered at infection site measured after 3 days by colony counting method relative to control; format: functional; settings: time 3.0 day

Compound	MIC [1] [µM]	MIC [2] [µM]	MIC [3] [µM]	MIC [4] [µM]	MIC [5] [µM]	MIC [6] [µM]	MIC [7] [µM]	MIC [8] [µM]	MBEC [9] [µM]	MBEC [10] [µM]	MBEC [11] [µM]	MBEC [12] [µM]	MBEC [13] [µM]	MBEC [14] [µM]	MBEC [15] [µM]	MBEC [16] [µM]	Stabilty [17]	Stabilty [18]	Activity [19]	Activity [20]	further results
CC[C@H](C)[C@@H]1NC(=O)[C@H](CCCNC(=N)N)NC(=O)[C@H](C(C)C)NC(=O)[C@H](C)NC(=O)[C@H](C(C)C)NC(=O)[C@H]([C@@H](C)CC)NC(=O)[C@H](CC(C)C)NC(=O)[C@H](CCCNC(=N)N)NC(=O)[C@H](C(C)C)NC(=O)[C@H](CCCNC(=N)N)NC(=O)[C@H](CCCNC(=N)N)NC(=O)[C@H](Cc2c[nH]c3ccccc23)NC1=O (cyclo(AVRIWRRVRLIV))	65.8 (≈ 99.9 µg/mL)	65.8 (≈ 99.9 µg/mL)	> 65.8	> 65.8	65.8 (≈ 99.9 µg/mL)	65.8 (≈ 99.9 µg/mL)	65.8 (≈ 99.9 µg/mL)	65.8 (≈ 99.9 µg/mL)	65.8	65.8	>65.8	>65.8	>65.8	>65.8	>65.8	>65.8	Stable	Stable	Not Active	Not Active	Activity [21]: Not Active; Activity [22]: Active; Activity [23]: Not Active; Activity [24]: Not Active; Activity [25]: Not Active; Activity [26]: Not Active; Activity [27]: Toxic; Activity [28]: Active; Activity [29]: Active; Activity [30]: Active
CCCCCCCCCCCCCCCC[N+](C)(C)Cc1ccccc1.[Cl-] [CETALKONIUM CHLORIDE]	3.7	3.7	> 126	> 126	7.8	7.8	7.8	7.8	15.1	20.1	>126	>126	40.3	40.3	40.3	63.1	–	–	–	–	–
COLISTIN	> 86	> 86	2.5	2.5	1.2	1.2	1.2	1.2	> 86	> 86	> 86	> 86	> 86	> 86	> 86	> 86	–	–	–	–	Activity [31]: inactive; Activity [32]: inactive; Activity [33]: inactive; Activity [34]: inactive; Activity [35]: inactive; Activity [36]: inactive
CN[C@H](CC(C)C)C(=O)N[C@H]1C(=O)N[C@@H](CC(N)=O)C(=O)N[C@H]2C(=O)N[C@H]3C(=O)N[C@H](C(=O)N[C@H](C(=O)O)c4cc(O)cc(O)c4-c4cc3ccc4O)[C@H](O)c3ccc(c(Cl)c3)Oc3cc2cc(c3O[C@@H]2O[C@H](CO)[C@@H](O)[C@H](O)[C@H]2O[C@H]2C[C@](C)(N)[C@H](O)[C@H](C)O2)Oc2ccc(cc2Cl)[C@H]1O [VANCOMYCIN]	0.4 (≈ 0.58 µg/mL)	0.4 (≈ 0.58 µg/mL)	> 68	> 68	> 68	> 68	> 68	> 68	>68	>68	>68	>68	>68	>68	>68	>68	–	–	–	–	–
CC[C@H](C)[C@@H]1NC(=O)[C@H](CCCNC(=N)N)NC(=O)[C@H](C(C)C)NC(=O)[C@H](C)NC(=O)[C@H](C(C)C)NC(=O)[C@H]([C@@H](C)CC)NC(=O)[C@H](CC(C)C)NC(=O)[C@H](CCCNC(=N)N)NC(=O)[C@H](C(C)C)NC(=O)[C@@H](N)CSSC[C@@H](C(N)=O)NC(=O)[C@H](CCCNC(=N)N)NC(=O)[C@H](CCCNC(=N)N)NC(=O)[C@H](Cc2c[nH]c3ccccc23)NC1=O (H-CVRLIVAVRIWRRC-NH2; disulfide 1-14)	28.7 (≈ 49.9 µg/mL)	28.7 (≈ 49.9 µg/mL)	57.4 (≈ 99.9 µg/mL)	57.4 (≈ 99.9 µg/mL)	28.7 (≈ 49.9 µg/mL)	57.4 (≈ 99.9 µg/mL)	57.4 (≈ 99.9 µg/mL)	28.7 (≈ 49.9 µg/mL)	18.3	18.3	57.4	57.4	36.7	57.4	57.4	28.7	Stable	Stable	Not Active	Not Active	Activity [21]: Not Active; Activity [22]: Active; Activity [23]: Active; Activity [24]: Active; Activity [25]: Active; Activity [26]: Not Active; Activity [27]: Toxic; Activity [28]: Active; Activity [29]: inactive; Activity [30]: Active; Activity [37]: Active; Activity [38]: 35%; Activity [39]: Active; Activity [40]: Active; Activity [41]: Active; Activity [42]: Toxic; Activity [43]: inactive; Activity [44]: inactive
